Experimental data taken from ChEMBL document CHEMBL1201862, “PubChem BioAssay data set” (2004).
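Test compounds were applied to cells in 96-well plates for 48 hours at 5 doses. At the GI50, growth is halved.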 Calls of active or inactive are those of the source. No stated cut-off is given here; in the data, active = GI50 up to about 1.1 µM and inactive = higher.

Tests used:
Assay in all cases: inhibition of tumour cell growth, NCI panel, 48 h
SNB-19 = system: SNB-19
SK-MEL-28 = system: SK-MEL-28
786-0 = system: 786-0
IGROV-1 = system: IGROV-1
COLO 205 = system: COLO 205
MDA-N = system: MDA-N
NCI-H460 = system: NCI-H460
BT-549 = system: BT-549
MDA-MB-435 = system: MDA-MB-435
T47D = system: T47D
OVCAR-3 = system: OVCAR-3
HT-29 = system: HT-29
HCC 2998 = system: HCC 2998
UACC-257 = system: UACC-257
SR = system: SR
SW-620 = system: SW-620
MCF7 = system: MCF7
SF-539 = system: SF-539
CAKI-1 = system: CAKI-1
HL-60 = system: HL-60
SK-MEL-5 = system: SK-MEL-5
UACC-62 = system: UACC-62
EKVX = system: EKVX
Malme-3M = system: Malme-3M
Hs-578T = system: Hs-578T
HOP-92 = system: HOP-92
NCI-H522 = system: NCI-H522
U-251 = system: U-251
A549 = system: A549
KM12 = system: KM12
ACHN = system: ACHN
SN12C = system: SN12C
HOP-62 = system: HOP-62
OVCAR-5 = system: OVCAR-5
MOLT-4 = system: MOLT-4
TK-10 = system: TK-10
CCRF-CEM = system: CCRF-CEM
HCT-15 = system: HCT-15
OVCAR-8 = system: OVCAR-8
SK-MEL-2 = system: SK-MEL-2
MDA-MB-231 = system: MDA-MB-231
M14 = system: M14
K562 = system: K562
SF-268 = system: SF-268
PC-3 = system: PC-3
NCI/ADR-RES = system: NCI/ADR-RES
SF-295 = system: SF-295
DU-145 = system: DU-145
SNB-75 = system: SNB-75
RPMI-8226 = system: RPMI-8226
SK-OV-3 = system: SK-OV-3
NCI-H23 = system: NCI-H23
HCT-116 = system: HCT-116
OVCAR-4 = system: OVCAR-4
LOX IMVI = system: LOX IMVI
NCI-H226 = system: NCI-H226
UO-31 = system: UO-31
RXF 393 = system: RXF 393
A498 = system: A498

Measured: GI50

Cc1c2ccccc2c(C)n2c1nc1cc3ccccc3cc12
active: 786-0 955 nM | IGROV-1 1040 nM | NCI-H460 1050 nM | OVCAR-3 968 nM | HT-29 647 nM | SR 721 nM | MCF7 321 nM | HOP-92 2.15 nM | ACHN 783 nM | OVCAR-5 1020 nM | OVCAR-8 1040 nM | NCI/ADR-RES 897 nM | SF-295 1060 nM
1360 nM: HCT-15
inactive: SNB-19 1540 nM | SK-MEL-28 1460 nM | COLO 205 1340 nM | MDA-N 1470 nM | BT-549 1840 nM | MDA-MB-435 1610 nM | T47D 6440 nM | HCC 2998 1780 nM | UACC-257 3300 nM | SW-620 1560 nM | SF-539 1340 nM | CAKI-1 1240 nM | HL-60 2500 nM | SK-MEL-5 1940 nM | UACC-62 1490 nM | EKVX 1640 nM | Malme-3M 1280 nM | Hs-578T 1250 nM | NCI-H522 1740 nM | U-251 1650 nM | A549 1860 nM | KM12 1320 nM | SN12C 1790 nM | HOP-62 1340 nM | MOLT-4 1320 nM | TK-10 2150 nM | CCRF-CEM 1570 nM | SK-MEL-2 1610 nM | MDA-MB-231 1360 nM | M14 1380 nM | K562 2910 nM | SF-268 1340 nM | PC-3 1270 nM | DU-145 1300 nM | SNB-75 1570 nM | RPMI-8226 2200 nM | SK-OV-3 2450 nM | NCI-H23 1290 nM | HCT-116 1370 nM | OVCAR-4 1560 nM

O=c1c2cc([N+](=O)[O-])cnc2sn1-c1ccc(Br)cc1
57400 nM: HCT-15
inactive: SNB-19 38800 nM | SK-MEL-28 > 100000 nM | 786-0 30500 nM | IGROV-1 81700 nM | COLO 205 47200 nM | LOX IMVI 19300 nM | MDA-N > 100000 nM | NCI-H460 66800 nM | BT-549 91400 nM | MDA-MB-435 > 100000 nM | T47D 6320 nM | OVCAR-3 22400 nM | HT-29 27200 nM | HCC 2998 91000 nM | UACC-257 > 100000 nM | SR 21800 nM | SW-620 28300 nM | MCF7 26000 nM | SF-539 27300 nM | HL-60 34500 nM | SK-MEL-5 > 100000 nM | UACC-62 82400 nM | EKVX 42500 nM | NCI-H226 73600 nM | Malme-3M 19100 nM | Hs-578T 23700 nM | HOP-92 23800 nM | UO-31 51300 nM | NCI-H522 5500 nM | U-251 34400 nM | A549 42300 nM | KM12 40800 nM | ACHN > 100000 nM | SN12C 72600 nM | HOP-62 36100 nM | OVCAR-5 38400 nM | MOLT-4 32800 nM | TK-10 > 100000 nM | CCRF-CEM 22900 nM | OVCAR-8 > 100000 nM | SK-MEL-2 32700 nM | MDA-MB-231 28300 nM | M14 53000 nM | SF-268 27500 nM | PC-3 33700 nM | NCI/ADR-RES 33900 nM | SF-295 17500 nM | DU-145 > 100000 nM | SNB-75 73500 nM | RPMI-8226 26600 nM | SK-OV-3 14800 nM | NCI-H23 29600 nM | HCT-116 19500 nM | OVCAR-4 24500 nM

CN(CCCCN(C)CCc1ccc(Cl)c(Cl)c1)CCCCN1CCCC1
1690 nM: HCT-15
inactive: SNB-19 2260 nM | 786-0 1250 nM | IGROV-1 2200 nM | COLO 205 1290 nM | MDA-N 1260 nM | NCI-H460 1480 nM | BT-549 1870 nM | T47D 2000 nM | OVCAR-3 2050 nM | UACC-257 1630 nM | SW-620 1210 nM | MCF7 1460 nM | CAKI-1 1600 nM | HL-60 1490 nM | UACC-62 1930 nM | EKVX 1630 nM | NCI-H226 2260 nM | Malme-3M 1910 nM | HOP-92 1260 nM | RXF 393 1320 nM | A549 1650 nM | ACHN 1910 nM | SN12C 1980 nM | HOP-62 1830 nM | OVCAR-5 2360 nM | MOLT-4 3080 nM | TK-10 1610 nM | A498 1720 nM | OVCAR-8 2090 nM | SK-MEL-2 1630 nM | SF-268 1460 nM | PC-3 1570 nM | NCI/ADR-RES 3230 nM | SF-295 1830 nM | DU-145 2730 nM | SNB-75 1730 nM | SK-OV-3 2180 nM | NCI-H23 1710 nM | HCT-116 1510 nM | OVCAR-4 1830 nM
active: SK-MEL-28 533 nM | LOX IMVI 912 nM | MDA-MB-435 465 nM | HT-29 494 nM | HCC 2998 195 nM | SF-539 1010 nM | SK-MEL-5 902 nM | Hs-578T 977 nM | UO-31 509 nM | NCI-H522 977 nM | U-251 745 nM | KM12 705 nM | CCRF-CEM < 23.5 nM | MDA-MB-231 750 nM | M14 787 nM | K562 877 nM | RPMI-8226 649 nM
